Source: US7470669B2, “Isolated polypeptide comprising a leptin fragment” (Serono Genetics Institute, S.A., priority 1999, dated 2008)

Tests used:
LSR [1] = test: 125I-leptin degradation in PLC cells; assay type: cell-based, human; conditions: 50 μM
LSR [2] = test: LSR activity (oleate-induced 125I-LDL binding, uptake, degradation) in primary cultures of rat hepatocytes; assay type: cell-based; conditions: rat hepatocytes; 50 μM
Method: FIGS. 6A, 6B, and 6C show the effect of leptin on ^125I-LDL and ^125I-chylomicron binding to LSR in primary cultures of rat hepatocytes. For FIG. 6A, primary cultures of rat hepatocytes (48 hours after plating) were incubated at 37° C. for 30 min in the absence (□) or presence (▪) of 50 ng/mL leptin in Buffer A, followed by a 20 min incubation at 37° C. with 0.5 mM oleate. The cells were then washed with ice-cold PBS, precooled for 10 min, and then incubated for 1 h at 4° C. with increasing concentrations of ^125I-LDL in Buffer A. Cells were washed, were lysed in 0.1 N NaOH and were counted for radioactivity. Results are shown as the mean of duplicate determinations. For FIG. 6B, primary cultures of rat hepatocytes were incubated at 37° C. for 30 min with or without 20 ng/mL leptin followed by incubation at 37° C. for 4 h with 6 μg protein/mL ^125I-chylomicrons in the absence or presence of 0.5 mM oleate in Buffer A. The cells were then washed and the ^125I-chylomicrons bound to the cell surface were released into the media by incubation with 10 mM suramin. The media was recovered and the radioactivity was measured. Results are shown as the mean±SD of six determinations. Fir FIG. 6C, after incubation at 37° C. for 30 min with 50 ng/mL leptin, the cells were incubated at room temperature for 30 min with 200 μg IgG/mL antibodies directed against rat LSR protein or irrelevant IgG. The amount of ^125I-chylomicrons bound was determined, and results are shown as means±SD of triplicate (irrelevant) or quadruplicate (anti-LSR) determinations.
(§1) FIGS. 7A and 7B show a comparison of the effect of human and mouse leptin on LSR activity in rat hepatocytes and on postprandial increase in plasma TG in db^Pas/db^Pas mice. For FIG. 7A, primary cultures of rat hepatocytes were incubated 30 min at 37° C. without (open bar) or with 10 ng/mL recombinant human (solid bar) or mouse (hatched bar) leptin in Buffer A. Oleate (0.5 mM) and ^125I-LDL (20 μg/mL) were added and the cells were incubated 2 h at 37° C. The media were removed and were analyzed for TCA-soluble degradation products. The mean of duplicate determinations is shown. For FIG. 7B, db^Pas/db^Pas mice were given a test meal as previously described, followed immediately by injection i.p. of saline (open bar, n=4), human leptin (1 μg/animal; solid bar, n=3) or mouse leptin (0.25 μg/animal; hatched bar; n=3). The data represent the difference in TG concentrations measured at t=0 and the average of the concentrations at 3 and 4 hours. Results are shown as mean±SEM.
Cells were incubated 30 min at 37° C. with increasing concentrations of mouse (▪) or human (●) leptin peptide. Following this, 0.5 mM oleate and 20 μg/mL ^125I-LDL were added and the cells were further incubated for 2 h at 37° C. The cells were washed, and the amount of oleate-induced ^125I-LDL bound and degraded was measured as described previously (Bihain, B. E., and Yen, F. T. (1992). Free fatty acids activate a high-affinity saturable pathway for degradation of low-density lipoproteins in fibroblasts from a subject homozygous for familial hypercholesterolemia. Biochemistry 31, 4628-4636).
FIGS. 11A and 11B show the effect of mouse leptin (FIG. 11A) or leptin peptide (FIG. 11B) on postprandial plasma TG response in ob/ob mice. […] Postprandial triglyceridemia was measured as described previously. Each point represents the mean±SEM (A: saline, n=8, leptin, n=7; leptin peptide: saline, n=8, leptin, n=8). […] Primary cultures of rat hepatocytes were incubated 30 min at 37° C. with increasing concentrations of mouse leptin peptide. Oleate (0.5 mM) and ^125I-LDL (20 μg/mL) were added and the cells were incubated 2 h at 37° C. After washing, the amount of 125I-LDL bound to the cell surface was measured as described in the Examples section herein. […]

LSR [3] = test: LSR activity (oleate-induced 125I-LDL binding, uptake, degradation) in PLC cells; assay type: cell-based, human
Method: FIGS. 5A, 5B, 5C, and 5D show the stimulatory effect of leptin on LSR activity in PLC and suppression of this effect by 81B antibody. For FIGS. 5A, 5B, and 5C, cultured PLC cells were incubated at 37° C. for 30 min with increasing concentrations of human recombinant leptin in Buffer A. After this, 0.5 mM oleate and 20 μg/mL ^125I-LDL were added, and cells were further incubated at 37° C. for 2 h. Cells were washed, and the amount of oleate-induced ^125I-LDL bound (5A), internalized (5B) and degraded (5C) were measured. For FIG. 5D, PLC cells were incubated at room temperature for 30 min with 200 μg/mL anti-LSR peptide 81B or 170 antibody, followed by incubation at 37° C. for 30 min without (open bar) or with (hatched bar) 10 ng/mL human leptin. Oleate (0.5 mM) and ^125I-LDL (20 μg/mL) were added, and the monolayers were left at 37° C. for 3 h. After washing, the amount of ^125I-LDL binding was determined, and is shown here as the mean±SD of triplicate determinations.
FIGS. 8A and 8B show the effect of mouse or human leptin on LSR activity in primary cultures of rat hepatocytes or a human liver cell line (PLC). Primary cultured rat hepatocytes were obtained commercially (In Vitro Tech). The PLC cell line was obtained from ATCC repository and maintained in culture. Rat hepatocytes 72 h after plating (8A) or confluent monolayers of PLC (8B) were incubated 30 min at 37° C. with 0 (closed bar) or 10 ng/mL of human (open bar) or mouse (hatched bar) recombinant leptin. Following this, 0.5 mM oleate and 20 μg/mL ^125I-LDL were added and the cells were further incubated for 2 h at 37° C. […] The cells were washed, and the amount of oleate-induced ^125I-LDL bound and degraded was measured as described previously (Bihain, B. E., and Yen, F. T. (1992). Free fatty acids activate a high-affinity saturable pathway for degradation of low density lipoproteins infibroblasts from a subject homozygous for familial hypercholesterolemia. Biochemistry 31, 4628-4636.
FIGS. 35A and 35B show graphs of LSR activity and mRNA expression measured in PLC cells preincubated 24 h with leptin. In FIG. 35A, PLC monolayers were incubated 24 h at 37° C. with (o) or without (n) 200 ng/mL human recombinant leptin. After washing with PBS, cells were incubated 30 min at 37° C. with increasing concentrations of human leptin, followed by a 2 h incubation at 37° C. with 0.8 mM oleate and 20 μg/mL ^125I-LDL. Cells were washed, and the amount of oleate-induced ^125I-LDL binding was measured as described previously. Results are shown as the mean of triplicate determinations. In FIG. 35B, PLC monolayers were incubated 24 h at 37° C. with 0, 200, or 400 ng/mL human recombinant leptin. After washing with PBS, the cells were harvested. Total RNA was prepared from the cell pellets, and Northerns were performed to detect LSR mRNA, using GAPDH probe as loading control as described previously. Northern blots were scanned on the Phosphorimager (Molecular Dynamics, Sunnyvale, Calif.). Densitometric analysis of the images was performed using the software ImageQuant. Results are shown as the amount of LSR signal relative to that of GAPDH (mean±SD, n=3/condition). […]

db^Pas/db^Pas mice = test: Postprandial plasma TG response after high-fat test meal in db^Pas/db^Pas mice; assay type: in vivo, mouse; conditions: 1 μg/animal i.p.
Method: FIGS. 1A and 1B show the effect of leptin on postprandial plasma TG response in db/db and db^Pas/db^Pas mice. Overnight-fasted db/db (A), db^Pas/db^Pas (B) mice were gavage-fed a high-fat test meal and immediately injected intravenously (db/db) or intraperitoneally (db^Pas/db^Pas) with saline (open symbols) or 50 μg mouse recombinant leptin (closed symbols). At the indicated times, blood was collected from the tail (A) or orbital (B) vein, plasma was separated by centrifugation, and plasma TG concentrations were determined using an enzymatic kit. Each point represents the mean±SEM (db/db: saline, n=4, leptin, n=3; db^Pas/db^Pas: saline, n=6, leptin, n=7). The average plasma lipid response in 10 control C57BL6 mice is shown as a dotted line in both A and B. In a separate experiment, shown as an inset for each strain of mice, overnight fasted db/db (●) or db^Pas/db^Pas (▪) mice were gavage-fed the test meal and immediately injected intravenously with increasing concentrations of leptin. The plasma lipid response was then measured as in A and B. The area under the response curve (AUC) was then calculated using a triangulation method on Microsoft Excel between 0 and 4 hr (mg TG·h/mL). Values are presented as % of control value (test meal alone obtained in A or B). Each point represents the mean of at least 3 mice.
as §1
Mice that were fasted for 2-3 hours were gavage-fed 300 μL of a test meal consisting of 60% fat (37% saturated, 27% mono-, and 36% polyunsaturated fatty acids), 20% protein and 20% carbohydrate, and providing 56 kcal of energy/kg (1.5 g butter, 1.5 g sunflower oil, 2.5 g nonfat dry milk, 2.5 g sucrose and 3 ml water). […] TG concentrations were determined using a commercially available enzymatic kit with controls included in each assay (Precinorm L, Roche-Boehringer Mannheim; Lyotrol N, BioMérieux).

CCN(CC)CCCC(C)Nc1ccnc2cc(Cl)ccc12 (stereo not shown) [Chloroquine]
increase of the amount of cell-associated 125I-leptin (LSR [1]): 2-4 fold | inhibition of 125I-leptin degradation (LSR [1]): more than 60%

C[C@@H]1C[C@@H]([C@H](O)CC2CC(=O)NC(=O)C2)C(=O)[C@@H](C)C1 [cycloheximide, reference compound]
effect on the stimulatory effect of leptin on LSR activity (LSR [2]): did not suppress the stimulatory effect of leptin

C=C1[C@@H](C)[C@H]2[C@H](Cc3ccccc3)NC(=O)[C@]23OC(=O)/C=C/[C@H](O)CCC[C@@H](C)C/C=C/[C@H]3[C@@H]1O [cytochalasin B, reference compound]
reduction of leptin stimulation of LSR activity (LSR [2]): more than 80%

human leptin: commercial preparation of recombinant human leptin
stimulation of LSR activity in human PLC cells (LSR [3]; 10 ng/mL recombinant leptin): more efficient | LSR activity after long-term exposure (LSR [3]; human liver cells (PLC) preincubated 24 h with 200 ng/mL): markedly reduced LSR activity | postprandial plasma TG response (db^Pas/db^Pas mice): slightly reduced
